Data from ChEMBL document CHEMBL1221212, “Small-molecule activation of neuronal cell fate” (Nat Chem Biol, 2008).
Activity calls are given as the source filed them. The calls are words filed in the database; no cut-off is given here.

How the values were obtained:
HCN [1] = experiment: Induction of L-type calcium channel/NMDA receptor-mediated neuroD gene expression in rat HCN cells at 50 uM after 3 hrs by RT-PCR analysis in presence of multiple inhibitors; type: cell-based
HCN [2] = experiment: Induction of neurogenesis in undifferentiated rat HCN cells assessed as MEF2C protein level at 8 to 64 uM after 9 hrs by protein blotting analysis; type: functional, cell-based
HCN [3] = experiment: Induction of CAMK-mediated MREx3 activity in rat HCN cells by luciferase reporter gene assay in presence of 2.5 uM potassium channel inhibitor KN92; type: cell-based
[4] = Induction of rat HCN cell differentiation assessed as upregulation of MEF2D expression after 2 to 4 days by protein blotting analysis; type: functional, cell-based
HCN [5] = experiment: Effect on subcellular distribution of MEF2C protein in rat HCN cells after 5 days; type: functional, cell-based
HCN [6] = experiment: Induction of L-type calcium channel/NMDA receptor-mediated Ca2+ influx in rat HCN cells; type: cell-based
HCN [7] = experiment: Induction of neurogenesis in undifferentiated rat HCN cells assessed as GlR2/3 protein level at 8 to 64 uM after 9 hrs by protein blotting analysis; type: functional, cell-based
HCN [8] = experiment: Induction of L-type calcium channel/NMDA receptor-mediated Ca2+ influx in rat HCN cells at 5 uM by Fura-2 imaging analysis; type: cell-based
HCN [9] = experiment: Induction of rat HCN cell differentiation assessed as increase in NR1 gene expression after 3 days by RT-PCR analysis; type: functional, cell-based
HCN [10] = experiment: Induction of neurogenesis in undifferentiated rat HCN cells assessed as MEF2A protein level at 8 to 64 uM after 9 hrs by protein blotting analysis; type: functional, cell-based
P19CL6 [11] = experiment: Induction of C57BL/6 mouse P19CL6 cell differentiation at 50 uM after 4 days; type: functional, cell-based
[12] = target: T1, Glutamate NMDA receptor (Rattus norvegicus) (UniProt P35439+Q00959+Q00960+Q00961+Q62645+Q8VHN2+Q9R1M7); experiment: Induction of NMDA receptor-mediated Ca2+ influx in rat HCN cells at 5 uM by Fura-2 imaging analysis in presence of NMDA receptor antagonist MK801; type: functional, cell-based
HCN [13] = experiment: Induction of rat HCN cell differentiation assessed as increase in neuroD gene expression at 10 uM after 3 hrs by RT-PCR analysis; type: functional, cell-based
HCN [14] = experiment: Induction of CAMK-mediated HDAC5 phosphorylation in rat HCN cells by Western blot analysis in presence of 2.5 uM CAMK inhibitor KN93; type: cell-based
[15] = target: T1, Glutamate NMDA receptor (Rattus norvegicus); experiment: Induction of NMDA receptor-mediated neuroD gene expression in rat HCN cells at 50 uM after 24 hrs by RT-PCR analysis in presence of NMDA receptor antagonist MK801; type: functional, cell-based
HCN [16] = experiment: Effect on subcellular distribution of MEF2A protein in rat HCN cells after 5 days; type: functional, cell-based
HCN [17] = experiment: Induction of rat HCN cell differentiation assessed as increase in beta-TUB3 gene expression after 9 days by RT-PCR analysis; type: functional, cell-based
HCN [18] = experiment: Induction of rat HCN cell differentiation assessed as increase in DCX gene expression after 9 days by RT-PCR analysis; type: functional, cell-based
HCN [19] = experiment: Induction of LIF/BMP2-mediated rat HCN cell differentiation into Tuj1 neurons after 4 days; type: functional, cell-based
HCN [20] = experiment: Induction of rat HCN cell differentiation into Tuj1 neurons at 20 uM after 4 days in presence of caspase inhibitor Q-VD-Oph; type: functional, cell-based
[21] = target: T1, Glutamate NMDA receptor (Rattus norvegicus); experiment: Induction of NMDA receptor-mediated neuroD gene expression in rat HCN cells at 50 uM after 3 hrs by RT-PCR analysis in presence of NMDA receptor antagonist MK801; type: functional, cell-based
HCN [22] = experiment: Induction of L-type calcium channel/NMDA receptor-mediated Ca2+ influx in rat HCN cells in presence multiple inhibitors; type: cell-based
[23] = target: T1, Glutamate NMDA receptor (Rattus norvegicus); experiment: Induction of NMDA receptor-mediated neuroD gene expression in rat HCN cells at 50 uM after 24 hrs by RT-PCR analysis in presence of NMDA receptor antagonist nifedipine; type: functional, cell-based
HCN [24] = experiment: Induction of L-type calcium channel/NMDA receptor-mediated neuroD gene expression in rat HCN cells at 50 uM after 24 hrs by RT-PCR analysis in presence of multiple inhibitors; type: cell-based
HCN [25] = experiment: Induction of HDAC5 phosphorylation in rat HCN cells after 24 hrs; type: functional, cell-based
HCN [26] = experiment: Induction of HDAC5 translocation in cytoplasm of rat HCN cells assessed as phosphorylated HDAC5 accumulation; type: functional, cell-based
HCN [27] = experiment: Induction of rat HCN cell differentiation assessed as increase in neuroD gene expression after 3 hrs by RT-PCR analysis; type: functional, cell-based
HCN [28] = experiment: Inhibition of gliogenesis differentiation in rat HCN cells at 25 uM after 4 days; type: functional, cell-based
HCN [29] = experiment: Induction of rat HCN cell differentiation assessed as increase in NR1 gene expression after 3 hrs by RT-PCR analysis; type: functional, cell-based
HCN [30] = experiment: Effect on subcellular distribution of CREB protein in rat HCN cells after 5 days; type: functional, cell-based
HCN [31] = experiment: Induction of rat HCN cell differentiation assessed as increase in Tuj1 gene expression after 3 hrs by RT-PCR analysis; type: functional, cell-based
[32] = Cytotoxicity in rat HCN cells at 20 uM after 4 days; type: cell-based; conditions: 96 h
HCN [33] = experiment: Induction of rat HCN cell differentiation assessed as increase in p27Kip1 gene expression after 9 days by RT-PCR analysis; type: functional, cell-based
HCN [34] = experiment: Induction of rat HCN cell differentiation assessed as increase in neuroD gene expression after 1 day by RT-PCR analysis; type: functional, cell-based
HCN [35] = experiment: Induction of rat HCN cell differentiation assessed as increase in GluR2 gene expression after 3 hrs by RT-PCR analysis; type: functional, cell-based
HCN [36] = experiment: Induction of rat HCN cell differentiation assessed as increase in MAP2AB gene expression after 9 days by RT-PCR analysis; type: functional, cell-based
P19CL6 [37] = experiment: Induction of mouse C57BL/6 P19CL6 cell differentiation assessed as induction of neuronal reporter gluR2 expression by luciferase reporter gene assay; type: functional, cell-based
HCN [38] = experiment: Induction of rat HCN cell differentiation assessed as increase in NR1 gene expression after 1 day by RT-PCR analysis; type: functional, cell-based
HCN [39] = experiment: Induction of CAMK-mediated MREx3 activity in rat HCN cells by luciferase reporter gene assay in presence of 200 nM PKC inhibitor Go6976; type: cell-based
HCN [40] = experiment: Induction of rat HCN cell differentiation assessed as increase in Tuj1 gene expression after 1 day by RT-PCR analysis; type: functional, cell-based
Neuronal progenitor cell [41] = experiment: Induction of mouse neuronal progenitor cell differentiation at 25 uM after 4 days; type: functional, cell-based
[42] = target: T1, Glutamate NMDA receptor (Rattus norvegicus); experiment: Induction of NMDA receptor-mediated Ca2+ influx in rat HCN cells in presence of NMDA receptor antagonist MK801; type: functional, cell-based
HCN [43] = experiment: Induction of rat HCN cell differentiation assessed as induction of neuronal reporter neuroD activity at 20 uM after 24 hrs by luciferase reporter gene assay; type: functional, cell-based
HCN [44] = experiment: Induction of HDAC5 phosphorylation in rat HCN cells after 6 hrs; type: functional, cell-based
HCN [45] = experiment: Induction of CAMK-mediated MREx3 activity in rat HCN cells by luciferase reporter gene assay in presence of 2.5 uM CAMK inhibitor KN93; type: cell-based
[46] = Induction of rat HCN cell proliferation at 20 uM after 20 days by BrdU incorporation assay; type: functional
Rattus norvegicus = species on record: Rattus norvegicus; experiment: Induction of rat HCN differentiation into Tuj1 neurons at 25 uM after 4 days; type: functional
[47] = Induction of rat HCN cell differentiation assessed as upregulation of MEF2A expression after 2 to 4 days by protein blotting analysis; type: functional, cell-based
HCN [48] = experiment: Inhibition of LIF/BMP2-mediated rat HCN cell differentiation into astrocytes at 25 uM; type: functional, cell-based
HCN [49] = experiment: Induction of rat HCN cell differentiation assessed as induction of induction of MREx3 gene expression by luciferase reporter gene assay; type: functional, cell-based
HCN [50] = experiment: Induction of LIF/BMP2-mediated rat HCN cell differentiation into GFAP-positive astrocytes after 4 days; type: functional, cell-based
HCN [51] = experiment: Induction of rat HCN cell differentiation assessed as increase in neuroD gene expression after 3 days by RT-PCR analysis; type: functional, cell-based
HCN [52] = experiment: Induction of rat HCN cell differentiation assessed as increase in GluR2 gene expression after 3 days by RT-PCR analysis; type: functional, cell-based
HCN [53] = experiment: Induction of HDAC5 translocation in nucleus of rat HCN cells assessed as GFP-HDAC5 S258A S498A mutant fusion protein accumulation at 5 uM by fluorescence assay; type: functional, cell-based
HCN [54] = experiment: Induction of rat HCN cell differentiation assessed as increase in GluR2 gene expression after 1 day by RT-PCR analysis; type: functional, cell-based
[55] = target: T1, Glutamate NMDA receptor (Rattus norvegicus); experiment: Induction of NMDA receptor-mediated neuroD gene expression in rat HCN cells at 50 uM after 3 hrs by RT-PCR analysis in presence of NMDA receptor antagonist nifedipine; type: functional, cell-based
HCN [56] = experiment: Induction of rat HCN cell differentiation assessed as increase in Tuj1 gene expression after 3 days by RT-PCR analysis; type: functional, cell-based
HCN [57] = experiment: Induction of neurogenesis in undifferentiated rat HCN cells assessed as MAP2AB protein level at 8 to 64 uM after 9 hrs by protein blotting analysis; type: functional, cell-based
HCN [58] = experiment: Induction of rat HCN cell differentiation assessed as induction of neuronal reporter neuroD activity by luciferase reporter gene assay; type: functional, cell-based
HCN [59] = experiment: Induction of L-type calcium channel/NMDA receptor-mediated Ca2+ influx in rat HCN cells at 5 uM by Fura-2 imaging analysis in presence of multiple of inhibitors; type: cell-based
HCN [60] = experiment: Induction of CAMK2 phosphorylation in rat HCN cells by Western blot analysis in presence of 2.5 uM CAMK inhibitor KN93; type: cell-based
[61] = Induction of rat HCN cell differentiation assessed as upregulation of MEF2C expression after 2 to 4 days by protein blotting analysis; type: functional, cell-based
HCN [62] = experiment: Induction of HDAC5 translocation in nucleus of rat HCN cells assessed as GFP-HDAC5 fusion protein accumulation at 20 uM by fluorescence assay; type: functional, cell-based
Neuronal progenitor cell [63] = experiment: Induction of mouse progenitor cell differentiation into Tuj1 neurons at 20 uM after 4 days; type: functional, cell-based
Neuronal progenitor cell [64] = experiment: Induction of mouse progenitor cell differentiation into Map2ab-positive neurons at 20 uM after 4 days; type: functional, cell-based
P19CL6 [65] = experiment: Induction of mouse C57BL/6 P19CL6 cell differentiation assessed as induction of neuronal reporter neuroD activity by luciferase reporter gene assay; type: functional, cell-based

What does the source list for `O=C(NC1CC1)c1cc(-c2cccs2)on1`?
Activity (HCN [1]): Active; Activity (HCN [2]): inactive; Activity (HCN [3]): Active; Activity [4]: Active; Activity (HCN [5]): inactive; Activity (HCN [6]): Active; Activity (HCN [7]): Active; Activity (HCN [8]): Active; Activity (HCN [9]): Active; Activity (HCN [10]): inactive; Activity (P19CL6 [11]): Active; Activity [12]: Active; Activity (HCN [13]): Active; Activity (HCN [14]): inactive; Activity [15]: Active; Activity (HCN [16]): inactive; Activity (HCN [17]): Active; Activity (HCN [18]): Active; Activity (HCN [19]): Active; Activity (HCN [20]): Active; Activity [21]: Active; Activity (HCN [22]): Active; Activity [23]: Active; Activity (HCN [24]): Active; Activity (HCN [25]): Active; Activity (HCN [26]): Active; Activity (HCN [27]): Active; inhibition (HCN [28]): Active; Activity (HCN [29]): Active; Activity (HCN [30]): inactive; Activity (HCN [31]): Active; Activity [32]: 18%; Activity (HCN [33]): Active; Activity (HCN [34]): Active; Activity (HCN [35]): Active; Activity (HCN [36]): Active; Activity (P19CL6 [37]): Dose-dependent effect; Activity (HCN [38]): Active; Activity (HCN [39]): Active; Activity (HCN [40]): Active; Activity (Neuronal progenitor cell [41]): Active; Activity [42]: Active; Activity (HCN [43]): Active; Activity (HCN [44]): Active; Activity (HCN [45]): inactive; Activity [46]: 40%; Activity (Rattus norvegicus): Active; Activity [47]: inactive; inhibition (HCN [48]): Active; Activity (HCN [49]): Dose-dependent effect; inhibition (HCN [50]): Active; Activity (HCN [51]): Active; Activity (HCN [52]): Active; Activity (HCN [53]): Active; Activity (HCN [54]): Active; Activity [55]: Active; Activity (HCN [56]): Active; Activity (HCN [57]): Active; Activity (HCN [58]): Dose-dependent effect; Activity (HCN [59]): Active; Activity (HCN [60]): inactive; Activity [61]: Active; Activity (HCN [62]): Active; Activity (Neuronal progenitor cell [63]): Active; Activity (Neuronal progenitor cell [64]): Active

For `O=C(NC1CCCC1)c1cc(-c2cccs2)on1`, which Activity (HCN [43]) is on record?
The Activity was “Active”.

What about the Activity (HCN [58]) of the same compound?
The Activity was “Dose-dependent effect”.

With `C=CCNC(=O)c1cc(-c2cccs2)on1` as the compound, how does the Activity (P19CL6 [65]) read?
The Activity was “Dose-dependent effect”.

For `O=C(NC1CCCC1)c1cc(-c2ccco2)on1`, which Activity (P19CL6 [65]) is on record?
The Activity was “Dose-dependent effect”.

And the Activity (HCN [58])?
Its Activity is “Dose-dependent effect”.
